Reference: US20080032950A1, “Neurologically-Active Compounds” (The University of Sydney, priority 2004, published 2008)
Where two headings read alike, the source gives them in different places.

Key:
GABAC receptors = conditions: antagonist; Woodward et al, 1993; cited from earlier work
GABAC (ρ1) = target: T1, GABAC (ρ1) (Homo sapiens, UniProt P24046); assay: Two-electrode voltage clamp on ρ1 GABAC receptors expressed in Xenopus oocytes; format: cell-based; conditions: for Selectivity (receptor subtype preferred): among GABAA, GABAB, GABAC; for Selectivity (fold): for GABAC over GABAA and GABAB
T1 construct: expressed in transfected cells; host or cells: Xenopus laevis oocytes injected with mRNA
T1 sequence (P24046 22-479): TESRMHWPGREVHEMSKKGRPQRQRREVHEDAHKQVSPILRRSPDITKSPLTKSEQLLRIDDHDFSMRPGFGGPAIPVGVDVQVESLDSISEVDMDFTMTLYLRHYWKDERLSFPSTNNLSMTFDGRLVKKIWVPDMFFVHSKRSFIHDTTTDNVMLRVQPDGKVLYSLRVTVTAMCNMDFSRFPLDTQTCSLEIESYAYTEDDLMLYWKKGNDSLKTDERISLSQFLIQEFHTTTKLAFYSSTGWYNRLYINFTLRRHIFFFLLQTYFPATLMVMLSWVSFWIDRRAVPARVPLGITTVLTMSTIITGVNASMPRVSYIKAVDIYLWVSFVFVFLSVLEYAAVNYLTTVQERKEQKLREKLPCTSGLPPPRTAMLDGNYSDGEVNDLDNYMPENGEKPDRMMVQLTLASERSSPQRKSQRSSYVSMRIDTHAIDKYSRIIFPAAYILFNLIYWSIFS
Experimental: (§1) The activity of compounds (15), (16), (17), (18) and (19) on GABA receptor sub-types were determined as described in Chebib, M., Mewett, K. N., Johnston, G. A. R., 1998, “GABAC receptor antagonists differentiate between human ρ1 and ρ2 receptors expressed in Xenopus oocytes”, European Journal of Pharmacology 357, 227-234.
(§2) In this method, oocytes were harvested from Xenopus laevis and defolliculated. The oocytes were then stored in ND96 solution (96 mM NaCl, 2 mM KCl, 1.8 mM CaCl2.2H2O, 1 mM MgCl2.6H2O, 5 mM HEPES (hemi-Na), pH 7.5) supplemented with 2.5 mM sodium pyruvate, 0.5 mM theophylline and 50 μgml^−1 gentamycin. The storage solution was changed daily.
(§3) Stage V-VI oocytes were injected with mRNA (10 ng/50 nl) and then stored at 16° C. Recordings of receptor activity were obtained after two to eight days by a two-electrode voltage clamp by means of a Geneclamp 500 amplifier (Axon Instruments Inc., Foster City, Calif.), a MacLab 2e recorder (AD Instruments, Sydney, NSW) and Chart version 3.6.3 program. Oocytes were voltage clamped at −60 mV and the preparation was continually perfused with ND96 solution at room temperature. Known concentrations of agonists and antagonists dissolved in ND96 were applied in the absence and presence of GABA respectively until maximum current was reached, at which time the oocyte was washed for five to ten minutes to allow complete recovery of response to a known dose of GABA. In the case of antagonists, two dose response curves were conducted on the same cell to enable calculation of single point estimates: a GABA dose-response curve and a GABA dose-response curve in the presence of a known concentration of antagonist. All compounds were tested on oocytes from at least three harvests.
The activity of this compound on the GABA receptor sub-types was determined by the same procedure as described in Example 2 for compounds (15) to (19). (±)-3-Aminocyclopente-1-nyl)methylphosphinic acid (200 μM) had no effect alone on ρ1 GABAC receptors but in the presence of 1 μM GABA inhibited the response by 65%.

GABAB (GB1) = target: T2, GABAB (GB1) (Homo sapiens, UniProt Q9UBS5); assay: Two-electrode voltage clamp on GABAB receptors expressed in Xenopus oocytes; format: cell-based; conditions: for GABAB (GB1) activity (type of action): voltage clamp -60 mV
T2 construct: expressed in transfected cells; host or cells: Xenopus laevis oocytes injected with mRNA
T2 sequence (Q9UBS5 20-961, species assumed): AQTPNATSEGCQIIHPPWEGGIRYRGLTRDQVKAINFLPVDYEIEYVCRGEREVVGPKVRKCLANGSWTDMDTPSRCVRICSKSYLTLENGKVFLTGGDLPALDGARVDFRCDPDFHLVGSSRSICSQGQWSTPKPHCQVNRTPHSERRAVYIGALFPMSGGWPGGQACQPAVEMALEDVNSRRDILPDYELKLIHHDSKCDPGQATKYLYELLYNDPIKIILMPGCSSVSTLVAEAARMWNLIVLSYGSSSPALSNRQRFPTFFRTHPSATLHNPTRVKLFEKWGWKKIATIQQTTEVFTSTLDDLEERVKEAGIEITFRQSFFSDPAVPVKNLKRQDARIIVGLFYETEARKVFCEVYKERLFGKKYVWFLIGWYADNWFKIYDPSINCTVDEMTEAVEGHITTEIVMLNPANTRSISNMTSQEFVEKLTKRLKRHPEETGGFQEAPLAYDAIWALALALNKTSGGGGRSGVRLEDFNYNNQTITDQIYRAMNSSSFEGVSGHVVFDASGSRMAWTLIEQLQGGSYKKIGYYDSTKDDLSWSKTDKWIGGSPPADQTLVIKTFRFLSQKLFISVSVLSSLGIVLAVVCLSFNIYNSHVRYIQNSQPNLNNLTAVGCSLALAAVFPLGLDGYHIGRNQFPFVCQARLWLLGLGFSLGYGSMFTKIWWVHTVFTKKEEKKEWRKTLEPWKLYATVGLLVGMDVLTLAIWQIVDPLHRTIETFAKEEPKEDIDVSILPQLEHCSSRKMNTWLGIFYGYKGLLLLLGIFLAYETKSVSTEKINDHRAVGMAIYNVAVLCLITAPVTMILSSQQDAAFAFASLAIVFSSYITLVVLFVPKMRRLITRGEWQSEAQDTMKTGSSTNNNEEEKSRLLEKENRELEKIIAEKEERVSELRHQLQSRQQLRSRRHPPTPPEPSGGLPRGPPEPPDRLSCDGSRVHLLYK
T2 sequence (O75899 42-941 partner, species assumed): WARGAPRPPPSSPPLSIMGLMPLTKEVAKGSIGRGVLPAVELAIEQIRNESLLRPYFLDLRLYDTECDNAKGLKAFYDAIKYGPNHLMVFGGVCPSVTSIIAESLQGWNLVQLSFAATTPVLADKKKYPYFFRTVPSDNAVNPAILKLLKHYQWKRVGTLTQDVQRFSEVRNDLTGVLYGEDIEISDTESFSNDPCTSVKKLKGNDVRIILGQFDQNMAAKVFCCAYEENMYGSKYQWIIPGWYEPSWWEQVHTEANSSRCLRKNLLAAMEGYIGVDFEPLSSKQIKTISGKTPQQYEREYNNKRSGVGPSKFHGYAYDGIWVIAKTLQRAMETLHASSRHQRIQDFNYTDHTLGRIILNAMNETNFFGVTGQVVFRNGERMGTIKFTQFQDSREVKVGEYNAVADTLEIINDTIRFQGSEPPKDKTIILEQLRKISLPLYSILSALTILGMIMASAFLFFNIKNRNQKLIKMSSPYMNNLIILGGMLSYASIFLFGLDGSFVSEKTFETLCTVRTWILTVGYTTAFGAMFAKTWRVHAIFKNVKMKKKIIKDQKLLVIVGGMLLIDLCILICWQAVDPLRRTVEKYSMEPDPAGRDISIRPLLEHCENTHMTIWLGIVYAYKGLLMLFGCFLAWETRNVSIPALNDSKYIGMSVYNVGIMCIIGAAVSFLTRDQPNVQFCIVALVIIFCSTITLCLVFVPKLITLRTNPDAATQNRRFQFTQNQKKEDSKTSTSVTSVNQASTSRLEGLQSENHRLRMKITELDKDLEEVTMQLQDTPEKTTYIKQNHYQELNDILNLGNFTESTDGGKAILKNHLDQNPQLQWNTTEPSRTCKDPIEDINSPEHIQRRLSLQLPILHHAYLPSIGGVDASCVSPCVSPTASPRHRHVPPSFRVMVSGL
Experimental: as §1, §2, §3

GABAA (α1β2γ2L) = target: T3, GABAA (α1β2γ2L) (Homo sapiens, UniProt P14867+P47870); assay: Two-electrode voltage clamp on GABAA receptors expressed in Xenopus oocytes; format: cell-based; conditions: for GABAA (α1β2γ2L) activity (type of action): Xenopus oocytes, voltage clamp -60 mV
T3 construct: expressed in transfected cells; host or cells: Xenopus laevis oocytes injected with mRNA
T3 sequence (P14867 28-456): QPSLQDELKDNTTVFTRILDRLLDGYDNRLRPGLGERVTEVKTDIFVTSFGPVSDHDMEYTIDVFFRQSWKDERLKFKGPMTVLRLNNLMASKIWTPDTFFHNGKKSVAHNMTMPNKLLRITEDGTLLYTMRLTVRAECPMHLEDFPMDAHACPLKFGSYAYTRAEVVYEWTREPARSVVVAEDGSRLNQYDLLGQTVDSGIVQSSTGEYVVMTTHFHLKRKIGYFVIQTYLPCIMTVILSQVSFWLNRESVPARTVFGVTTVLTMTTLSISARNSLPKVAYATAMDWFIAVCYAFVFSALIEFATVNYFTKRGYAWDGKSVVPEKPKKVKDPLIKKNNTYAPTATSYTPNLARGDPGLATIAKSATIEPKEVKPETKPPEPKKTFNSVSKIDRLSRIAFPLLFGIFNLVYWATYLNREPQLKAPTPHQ
T3 sequence (P47870 25-512 limits assumed): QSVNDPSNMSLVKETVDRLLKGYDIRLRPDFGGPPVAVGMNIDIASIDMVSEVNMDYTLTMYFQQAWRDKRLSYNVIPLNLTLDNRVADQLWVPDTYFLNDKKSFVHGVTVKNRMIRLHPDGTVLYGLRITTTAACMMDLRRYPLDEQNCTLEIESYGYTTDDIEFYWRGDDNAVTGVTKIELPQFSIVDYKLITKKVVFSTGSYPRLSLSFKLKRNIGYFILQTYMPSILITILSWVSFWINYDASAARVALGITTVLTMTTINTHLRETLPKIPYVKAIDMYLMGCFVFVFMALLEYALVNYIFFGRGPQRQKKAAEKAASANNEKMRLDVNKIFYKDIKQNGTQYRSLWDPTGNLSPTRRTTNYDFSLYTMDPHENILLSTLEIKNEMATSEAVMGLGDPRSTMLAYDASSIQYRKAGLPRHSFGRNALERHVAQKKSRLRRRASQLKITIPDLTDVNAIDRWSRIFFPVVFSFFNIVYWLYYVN
T3 sequence (P18507 40-475 partner): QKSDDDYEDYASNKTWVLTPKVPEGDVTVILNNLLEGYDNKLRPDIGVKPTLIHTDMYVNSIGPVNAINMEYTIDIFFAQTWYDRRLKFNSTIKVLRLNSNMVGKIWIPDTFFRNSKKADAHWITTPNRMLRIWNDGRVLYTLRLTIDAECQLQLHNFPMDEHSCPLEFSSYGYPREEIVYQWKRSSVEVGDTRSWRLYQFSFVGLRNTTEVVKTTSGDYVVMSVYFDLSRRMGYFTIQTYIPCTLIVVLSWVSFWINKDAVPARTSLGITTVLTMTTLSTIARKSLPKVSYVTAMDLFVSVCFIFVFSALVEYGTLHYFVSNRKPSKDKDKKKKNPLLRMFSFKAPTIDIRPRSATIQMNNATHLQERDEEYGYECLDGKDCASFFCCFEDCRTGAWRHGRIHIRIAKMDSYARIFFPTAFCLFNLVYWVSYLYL
Experimental: as §1, §2, §3

GABAC receptor = GABAC receptor (Homo sapiens, UniProt P24046); conditions: cited from earlier work
GABAC receptor, sequence (P24046 22-479): as the sequence (P24046 22-479) above

[1] = Xenopus oocytes, voltage clamp -60 mV

Compound | Kb (GABAC receptors) [µM] | GABAC (ρ1) activity (type of action) (GABAC (ρ1); [1]) | Selectivity (receptor subtype preferred) (GABAC (ρ1)) | Selectivity (fold) (GABAC (ρ1)) | GABAB (GB1) activity (type of action) (GABAB (GB1); Xenopus oocytes) | IC50 (GABAA (α1β2γ2L)) [µM] | GABAA (α1β2γ2L) activity (type of action) (GABAA (α1β2γ2L)) | IC50 (GABAB (GB1)) [µM] | further results
NCCCP(=O)(O)O [Compound 3-APA, 3-aminopropylphosphonic acid] | 1.8 | – | – | – | – | – | – | – | –
CP(=O)(O)C1=CCC(N)C1 (racemic) [Compound 15, (±)-(4-Aminocyclopent-1-enyl)methylphosphinic acid] | – | Antagonist | GABAC | ˜50x | Partial Agonist | > 300 | Antagonist | – | –
NCCC[PH](=O)O [CGP27492, 3-aminopropylphosphinic acid] | 0.8 | – | – | – | – | – | – | – | –
CCCCP(=O)(O)C1=CCC(N)C1 (racemic) [Compound 18, (±)-(4-Aminocyclopent-1-enyl)butylphosphinic acid] | – | Antagonist | GABAC | ˜100x | Antagonist | > 300 | Antagonist | ~300 | –
NC1CC=C(P(=O)(O)Cc2ccccc2)C1 (racemic) [Compound 19, (±)-(4-Aminocyclopent-1-enyl)benzylphosphinic acid] | – | Antagonist | – | – | – | – | Antagonist | – | IC50 (GABAC (ρ1); Xenopus oocytes, voltage clamp -60 mV, read-out: GABAC (ρ1) IC50): > 300 µM; GABAB (GB1) effect (GABAB (GB1); at ~300 μM, Xenopus oocytes): (No effect ˜ 300 μM)
CCP(=O)(O)C1=CCC(N)C1 (racemic) [Compound 16, (±)-(4-Aminocyclopent-1-enyl)ethylphosphinic acid] | – | Antagonist | GABAC | ˜25x | Antagonist | > 600 | Antagonist | > 300 | –
CP(=O)(O)CCCN [CGP35024, (3-aminopropyl)methylphosphinic acid] | 0.8 | – | – | – | – | – | – | – | –
CC(C)P(=O)(O)C1=CCC(N)C1 (racemic) [Compound 17, (±)-(4-Aminocyclopent-1-enyl)isopropylphosphinic acid] | – | Antagonist | GABAC | ˜50x | Antagonist | > 600 | Antagonist | > 300 | IC50 (GABAC (ρ1)): 6.34 µM
(1,2,5,6-tetrahydropyridine-4-yl)methylphosphinic acid [TPMPA] | – | – | – | – | – | – | – | – | Kb (GABAC receptor; antagonist, Murata et al, 1996, Ragozzinno et al, 1996, read-out: KB at GABAC receptors): 2.1 µM; IC50 (GABAC receptor; read-out: Concentration producing 50% inhibition of GABAC receptor activation): 2.1 µM
